This note sets out measurements from patent US20230181905A1, “Systems, Devices, and Methods for Enhancing the Neuroprotective Effects of Non-Invasive Gamma Stimulation with Pharmacological Agents” (Massachusetts Institute of Technology, priority 2021, published 2023).

The subject of one test is GFAP+ astrocytes. The experiment in a line: GFAP+ astrocyte immunohistochemistry. The format is in vivo, mouse. Particulars: 5×FAD mice; Plx3397 diet 50 days vs control. How it is done:
To study how CSF1R-sensitive microglia impact neural activity in the context of AD, an amyloidosis mouse model, the 5×FAD mice—which is a most commonly used mouse model for AD, was subject to a diet containing CSF1R inhibitor Plx3397 for 50 days (FIG. 21A). The CSF1R inhibitor Plx3397 (600 ppm) was employed, which was previously shown to effectively reduce microglia in vivo. Control mice were age-matched 5×FAD litters that received a regular diet. Electrophysiological recordings were performed using linear probes. Post-recording, the recording site in the visual cortex was verified by histology (FIG. 21), and microglia reduction was evaluated by assessing IBA1+ cell numbers.
Antibodies: IBA1 (Synaptic Systems, Cat #234 004, dilution-1:500; Wako Chemicals, Cat #019-19741, dilution-1:500), GFAP (Thermo Fisher Scientific, Cat #130300, dilution-1:500), MEF2C (Cell Signaling Technology, Cat #5030T), MAC2 (Cedarlane Labs, Cat #CL8942AP, dilution-1:500), vGAT (Synaptic Systems, Cat #131 013, dilution-1:500), vGLUT (Synaptic Systems, Cat #1135 302, dilution-1:500), NeuN (Synaptic Systems, Cat #266 004, dilution-1:1000), MHC2 (EMD Millipore, Cat #MABF33, dilution-1:500), C1q (Abcam, Cat #ab182451, dilution-1:500), synaptophysin (Sigma, Cat #S5768). […]

Another test has as its system synaptophysin. The experiment in a line: Synaptophysin western blot and immunohistochemistry. The format is in vivo, mouse. Conditions: 5×FAD mice. How it is done: Loss of synapses and neurons are closely associated with higher neuroinflammatory response and cognitive decline in AD. Therefore, synaptic markers in the visual cortex of Plx3397 and/or GENUS treated mice were evaluated. […] Thus, whether these treatments had any effect on neuronal density by immunohistochemical analysis of neuronal marker NeuN was examined (Synaptic Systems, #266 004) positive cells (FIG. 4A).
The visual cortex was dissected out and snap-frozen in liquid nitrogen and stored in an −80° C. freezer until processing. Samples were homogenized using a glass homogenizer with RIPA (50 mM Tris HCl pH 8.0, 150 mM NaCl, 1% NP-40, 0.5% sodium deoxycholate, 0.1% SDS) buffer which contains protease and phosphatase inhibitor. The concentration of proteins in samples were quantified using a Bio-Rad protein assay. Equal concentrations of proteins were prepared and added with SDS—sample buffer. […] of protein was loaded onto 4-20% polyacrylamide gels and electrophoresed. Protein was transferred from acrylamide gels to nitrocellulose membranes for 12 min (Semi-dry system, Bio-Rad). Membranes were blocked using BSA (5% w/v) diluted in TBS containing 0.1% Tween-20 (TBSTw), then incubated in primary antibodies overnight at 4° C. The following day, they were washed three times with TBSTw and incubated with horseradish peroxidase-linked secondary antibodies (GE Healthcare) at room temperature for 60 min. After three further washes with TBSTw, membranes were treated with chemiluminescence substrates and the blots were visualized (Chem doc, Bio-Rad). Signal intensities were quantified using ImageJ 1.46q and normalized to values of loading control.
These observations led to examination of the effect of Plx3397 administration on neuronal integrity. […]
The brain was perfused with PBS and fixed with 4% PFA. […] Signal intensities were quantified using ImageJ 1.46q and normalized to values of loading control.
In general terms: Immunoblotting shows a protein as a band on a membrane.

With `FC(F)(F)c1ccc(CNc2ccc(Cc3c[nH]c4ncc(Cl)cc34)cn2)cn1` [Plx3397, Pexidartinib], in the test on GFAP+ astrocytes, the “GFAP+ astrocytes” value is given as “no difference”. Moreover, the synaptophysin entry in the test on synaptophysin (hippocampus, chronic Plx3397 vs control) was “increased”. The same compound gave a synaptophysin signals with synaptophysin (visual cortex, IHC, Plx3397 50 days) of 6524128709±177336289 au. For the same compound, the “synaptophysin level (western blot)” value in the test with synaptophysin (visual cortex, control 100±12.03) came out at 185.3±23.83.
